# Assay results published in ChEMBL document CHEMBL1201862, “PubChem BioAssay data set” (2004).
# Active and inactive are the calls of the source.
# How the values were obtained:
# [1] = cells; type: functional, cell-based
# [2] = cells; type: functional, cell-based; remark: listed apart in the source
# [3] = target: T1, Carboxy-terminal domain RNA polymerase II polypeptide A small phosphatase 1 (Homo sapiens, UniProt Q9GZU7); assay: CTDSP1 inhibitors, concentration-response, biochemical, absorbance readout, ultra-high-throughput screen actives (AID 540297); type: functional
# T1 sequence (Q9GZU7 whole entry): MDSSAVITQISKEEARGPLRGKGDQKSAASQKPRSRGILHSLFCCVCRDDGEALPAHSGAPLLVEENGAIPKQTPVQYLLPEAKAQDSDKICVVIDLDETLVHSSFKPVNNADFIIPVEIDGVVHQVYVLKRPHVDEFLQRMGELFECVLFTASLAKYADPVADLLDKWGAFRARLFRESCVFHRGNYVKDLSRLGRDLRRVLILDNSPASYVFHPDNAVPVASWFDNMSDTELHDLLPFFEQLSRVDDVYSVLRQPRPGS
# [4] = Luminescence Cell-Based Dose Confirmation HTS to Identify Activators of 5'UTR Stem-Loop Driven Alpha-Synuclein mRNA Translation in H4 Neuroglioblastoma Cells. [Related pubchem assays: 1829 (Project Summary), 1814 (Primary HTS)]; type: functional
# [5] = Luminescence Cell-Based Dose Response HTS to Identify Activators of Luciferase Translation or Activity in H4 […] Cells. [Related pubchem assays: 1829 (Project Summary), 1814 (Primary HTS)]; type: functional
# [6] = system: H4; assay: Luminescence Cell-Based Dose Response HTS to Identify Activators of 5'UTR Stem-Loop Driven Prion Protein mRNA Translation in H4 Neuroglioblastoma Cells. [Related pubchem assays: 1829 (Project Summary), 1814 (Primary HTS)]; type: functional; details: Homo sapiens
# [7] = target: T2, Heat shock factor protein 1 (Mus musculus, UniProt P38532); assay: decrease of HSF1-responsive luciferase luminescence – cell-based, NIH3T3, dose retest, confirmation (AID 2382); type: functional;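 further: NIH3T3 fibroblasts with HSF1-driven luciferase reporter stressed by proteasome inhibitor MG132; luminescence from HSF1-driven luciferase expression after 8 hours of MG132 stress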
# T2 sequence (P38532 whole entry): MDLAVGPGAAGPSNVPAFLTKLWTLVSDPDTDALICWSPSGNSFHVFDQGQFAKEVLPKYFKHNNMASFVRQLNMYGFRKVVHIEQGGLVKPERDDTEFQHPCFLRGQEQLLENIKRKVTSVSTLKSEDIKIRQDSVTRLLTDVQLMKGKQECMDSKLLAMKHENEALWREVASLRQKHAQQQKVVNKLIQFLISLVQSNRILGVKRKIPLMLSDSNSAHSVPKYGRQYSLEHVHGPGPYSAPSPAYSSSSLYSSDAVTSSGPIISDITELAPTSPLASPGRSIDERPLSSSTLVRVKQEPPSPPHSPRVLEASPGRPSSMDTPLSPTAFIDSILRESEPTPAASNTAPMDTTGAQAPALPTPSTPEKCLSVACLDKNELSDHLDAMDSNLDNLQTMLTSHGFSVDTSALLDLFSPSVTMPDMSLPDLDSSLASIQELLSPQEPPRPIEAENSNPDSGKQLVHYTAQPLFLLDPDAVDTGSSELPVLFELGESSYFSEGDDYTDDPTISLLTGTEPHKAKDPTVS
# [8] = target: T3, Polyadenylate-binding protein 1 (Homo sapiens, UniProt P11940); assay: MLLE binding blockers, Cy5 peptide tracer – biochemical, fluorescence polarization, Cy5-PAM2 peptide, secondary, miRNA deadenylation inhibitor project, dose response (AID 602260); type: functional; details: read-out: IC50_Mean
# [9] = target: T3, Polyadenylate-binding protein 1; assay: MLLE domain peptide-binding blockers, IC50 – biochemical, fluorescence polarization, FITC-PAM2 peptide, dose response (AID 602259); type: functional; details: read-out: IC50_Mean
# [10] = target: Glucose-6-phosphate 1-dehydrogenase (Homo sapiens, UniProt P11413); assay: inhibition of Homo sapiens G6PD, dose series – biochemical, fluorescence, selectivity assay for P. falciparum G6PD inhibitor project, dose response (AID 504792); type: functional
# [11] = target: T4, Rac GTPase-activating protein 1 (Homo sapiens, UniProt Q9H0H5); assay: blockers of MgcRacGAP-driven Rac1 GTP hydrolysis – biochemical, ADP Hunter fluorescence, primary and confirmatory, confirmation (AID 624330); type: functional
# T4 sequence (Q9H0H5 whole entry): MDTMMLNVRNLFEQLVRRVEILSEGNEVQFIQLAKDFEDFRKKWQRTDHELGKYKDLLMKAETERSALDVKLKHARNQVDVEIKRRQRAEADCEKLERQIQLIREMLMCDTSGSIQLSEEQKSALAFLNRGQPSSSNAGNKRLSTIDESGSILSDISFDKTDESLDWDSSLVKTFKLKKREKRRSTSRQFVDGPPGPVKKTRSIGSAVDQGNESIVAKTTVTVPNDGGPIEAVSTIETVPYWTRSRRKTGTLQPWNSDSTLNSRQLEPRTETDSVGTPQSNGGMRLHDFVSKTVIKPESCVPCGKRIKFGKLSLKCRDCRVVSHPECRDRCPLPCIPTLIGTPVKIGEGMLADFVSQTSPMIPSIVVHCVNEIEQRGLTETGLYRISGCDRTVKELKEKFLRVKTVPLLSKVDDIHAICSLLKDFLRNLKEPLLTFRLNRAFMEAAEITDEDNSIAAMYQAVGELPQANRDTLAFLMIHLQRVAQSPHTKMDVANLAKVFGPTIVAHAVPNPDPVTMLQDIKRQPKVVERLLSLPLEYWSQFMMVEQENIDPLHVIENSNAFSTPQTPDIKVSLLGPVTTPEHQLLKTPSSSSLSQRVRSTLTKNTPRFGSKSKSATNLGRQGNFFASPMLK
# [12] = blockers of HIV-1 envelope-mediated cell-cell fusion – cherry-pick, dose response (AID 652057); type: functional, cell-based
# [13] = blockers of HIV-1 ZM109 envelope-driven cell-cell fusion – HeLa effector, CEM target cells, luciferase, cherry-pick, dose response (AID 652058); type: functional, cell-based;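 further: luciferase signal from HIV-1 Env mediated cell-cell fusion of effector and target cells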
# [14] = HIV-1 AD8 envelope cell-cell fusion blockers – cherry-pick, dose response (AID 652062); type: functional, cell-based;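 further: luciferase signal from cell-cell fusion driven by HIV-1 clade B AD8 Env; potency is for inhibitors of fusion seen as a drop in luminescence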
# [15] = target: T5, Ubiquitin-conjugating enzyme E2 N (Homo sapiens, UniProt P61088); type: functional;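 further: Dose-response confirmation in a TR-FRET assay detecting UBC13-driven polyubiquitin chain formation, inhibition measured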
# T5 sequence (P61088 whole entry): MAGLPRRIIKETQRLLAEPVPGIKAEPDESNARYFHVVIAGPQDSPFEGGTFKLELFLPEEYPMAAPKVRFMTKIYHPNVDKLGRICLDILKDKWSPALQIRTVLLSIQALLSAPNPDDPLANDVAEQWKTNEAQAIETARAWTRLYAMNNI
# Sequence of Glucose-6-phosphate 1-dehydrogenase (P11413 whole entry): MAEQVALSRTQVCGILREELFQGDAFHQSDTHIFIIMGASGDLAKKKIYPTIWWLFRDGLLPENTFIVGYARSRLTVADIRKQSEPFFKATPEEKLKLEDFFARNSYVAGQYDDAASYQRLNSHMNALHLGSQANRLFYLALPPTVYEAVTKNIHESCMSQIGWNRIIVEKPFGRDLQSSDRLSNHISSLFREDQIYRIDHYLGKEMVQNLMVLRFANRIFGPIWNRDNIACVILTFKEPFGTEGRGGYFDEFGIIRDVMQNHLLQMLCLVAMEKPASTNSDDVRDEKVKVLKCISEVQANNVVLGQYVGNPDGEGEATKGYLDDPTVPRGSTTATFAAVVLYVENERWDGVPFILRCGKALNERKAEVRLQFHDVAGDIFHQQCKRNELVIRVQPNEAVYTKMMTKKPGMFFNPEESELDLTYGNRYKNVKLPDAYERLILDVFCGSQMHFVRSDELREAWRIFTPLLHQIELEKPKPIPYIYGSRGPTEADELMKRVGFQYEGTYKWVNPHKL
# T3 sequence (P11940 whole entry, the tested form may be a part): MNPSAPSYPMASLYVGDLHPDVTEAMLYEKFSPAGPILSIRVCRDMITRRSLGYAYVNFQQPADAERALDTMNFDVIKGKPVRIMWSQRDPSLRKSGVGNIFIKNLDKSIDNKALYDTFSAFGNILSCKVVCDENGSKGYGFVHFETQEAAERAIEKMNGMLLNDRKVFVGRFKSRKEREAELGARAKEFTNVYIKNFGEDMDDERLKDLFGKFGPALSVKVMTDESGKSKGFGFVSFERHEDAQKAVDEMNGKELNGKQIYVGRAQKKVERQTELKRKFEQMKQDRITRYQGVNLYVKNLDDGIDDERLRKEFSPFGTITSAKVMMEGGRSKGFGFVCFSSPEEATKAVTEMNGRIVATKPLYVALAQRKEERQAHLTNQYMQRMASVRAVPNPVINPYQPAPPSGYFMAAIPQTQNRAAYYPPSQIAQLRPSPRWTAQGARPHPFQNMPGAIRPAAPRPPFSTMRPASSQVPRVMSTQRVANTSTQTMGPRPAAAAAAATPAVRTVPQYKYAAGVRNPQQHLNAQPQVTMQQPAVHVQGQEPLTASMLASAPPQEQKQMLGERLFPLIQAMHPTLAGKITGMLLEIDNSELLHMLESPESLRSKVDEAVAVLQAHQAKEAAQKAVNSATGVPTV
smiles,measurement,setting,value
COc1ccc(C)cc1NC(=O)c1ccc(N(C)S(C)(=O)=O)cc1,EC50,[1],> 350 µM (not active)
same,EC50,[2],> 350 µM (not active)
CCOc1ccccc1NC(=O)COc1ccc2c(c1)OCO2,EC50,[1],> 350 µM (not active)
same,EC50,[2],> 350 µM (not active)
O=C1CC(=O)N2N=C(c3ccc([N+](=O)[O-])cc3)SC2=N1,IC50,[3],5.67 µM (active)
C1CC1Cc1noc(CN2CCN(CC3CC3)CC2)n1,EC50,[1],> 350 µM (not active)
same,EC50,[2],> 350 µM (not active)
c1ccc(-c2ccc3c(n2)CCCO3)cc1,EC50,[4],47.7 µM (active)
same,EC50,[5],55.5 µM (active)
same,EC50,[6],7.05 µM (active)
Cc1ccc2nc(-c3ccccc3NC(=O)CCC(=O)O)c(O)nc2c1,EC50,[1],> 350 µM (not active)
same,EC50,[7],> 195 µM (not active)
same,EC50,[2],> 350 µM (not active)
O=C(OCc1cc(=O)n2c(n1)sc1ccccc12)c1ccc2c(=O)n3c(nc2c1)CCC3,IC50,[3],5.85 µM (active)
Cc1ccc(C(=O)Cn2nnc3ccccc32)cc1,EC50,[4],0.276 µM (active)
same,EC50,[5],0.325 µM (active)
same,EC50,[6],77.2 µM (active)
O=C(NCC1CCCO1)c1sc2cc(Cl)ccc2c1Cl (stereo not drawn),EC50,[1],> 350 µM (not active)
same,EC50,[2],66.4 µM (active)
CCOc1ccc2c(c1)-c1c(ssc1=S)C(C)(C)N2C(=O)CSC1=NCCS1,IC50,[8],> 66 µM (inactive)
same,IC50,[9],> 66 µM (inactive)
O=C(CCc1ccccc1)NC(=S)Nc1ccc(S(=O)(=O)N2CCOCC2)cc1,IC50,[8],> 66 µM (inactive)
same,IC50,[9],> 66 µM (inactive)
COc1ccc(C(=S)Nc2ccc(C)cc2)cc1,IC50,[8],> 66 µM (inactive)
same,IC50,[9],> 66 µM (inactive)
COCCNC(=O)C(c1ccncc1)N(Cc1ccccc1)C(=O)Cn1nnc2ccccc21 (stereo not drawn),EC50,[4],4.27 µM (active)
same,EC50,[5],15.7 µM (active)
same,EC50,[6],1.08 µM (active)
Cc1ccc(F)cc1NC(=O)c1sc2ncn(CC(=O)N3CCN(c4ccccn4)CC3)c(=O)c2c1C,EC50,[4],> 120 µM (not active)
same,EC50,[5],> 120 µM (not active)
same,EC50,[6],> 120 µM (not active)
CC1CC(C)CN(C(=O)COC(=O)/C=C/c2ccco2)C1 (stereo not drawn),IC50,[3],19.9 µM (active)
CC(SCC(=O)Nc1ccccc1)c1nc(O)c2ccccc2n1 (stereo not drawn),IC50,[10],22.3 µM (inactive)
Cc1cccc(NC(=O)Cc2noc3ccccc23)c1,EC50,[1],> 350 µM (not active)
same,EC50,[2],115 µM (active)
NC(=S)N=Nc1c(O)[nH]c2ccc(F)cc12,IC50,[8],> 66 µM (inactive)
same,IC50,[9],> 66 µM (inactive)
CCN(CC)c1nc(N)nc(NS(=O)(=O)c2ccc(Cl)cc2)n1,IC50,[10],> 80 µM (inactive)
O=c1c2ccccc2nnn1COc1ccc(Cl)cc1Br,EC50,[4],0.383 µM (active)
same,EC50,[5],29.7 µM (active)
same,EC50,[6],15.6 µM (active)
N#Cc1ccccc1OCCCN1CCC(Cc2ccccc2)CC1,EC50,[1],> 350 µM (not active)
same,EC50,[2],> 350 µM (not active)
same,IC50,[11],132 µM (active)
CCOC(=O)CN1C(=N)N(c2nc(NC(C)C)nc(NC(C)C)n2)CC1=O,EC50,[1],> 350 µM (not active)
same,EC50,[2],> 350 µM (not active)
COc1ccc(CCN(Cc2cccs2)S(=O)(=O)c2ccc(-n3cnnn3)cc2)cc1OC,AC50,[12],12.7 µM (active)
same,AC50,[13],20.3 µM (active)
same,AC50,[14],9.27 µM (active)
O=[N+]([O-])c1cccc(C(=S)N2CCN(c3ccccc3)CC2)c1,IC50,[8],> 66 µM (inactive)
same,IC50,[9],> 66 µM (inactive)
CCCS(=O)(=O)N1CCN=C1SCc1cccnc1,IC50,[8],> 66 µM (inactive)
same,IC50,[9],> 66 µM (inactive)
O=[N+]([O-])c1ccc2c(c1)-c1ccccc1C2O (stereo not drawn),IC50,[10],> 80 µM (inactive)
CON=C(C(=O)NC1C(=O)N2C(C(=O)O)=C(CSc3nc(=O)c(=O)[nH]n3C)CSC12)c1csc(N)n1 (stereo not drawn),IC50,[3],2.89 µM (active)
COc1ccc(S(=O)(=O)N(C)C[C@@H]2Oc3ncc(-c4cc5ccccc5o4)cc3C(=O)N([C@H](C)CO)C[C@@H]2C)cc1,AC50,[12],10.5 µM (active)
same,AC50,[14],16.4 µM (active)
CN1C(=O)c2cc(NS(=O)(=O)c3ccccc3F)ccc2OC[C@@H]2O[C@H](CC(=O)NC3Cc4ccccc4C3)CC[C@@H]21,AC50,[12],2.89 µM (active)
same,AC50,[13],2.99 µM (active)
same,AC50,[14],8.06 µM (active)
COc1ccc(NC(=O)Nc2ccc3c(c2)C(=O)N([C@H](C)CO)C[C@H](C)[C@H](CN(C)S(=O)(=O)c2ccc(F)cc2)O3)cc1,AC50,[12],13 µM (active)
same,AC50,[13],16.6 µM (active)
same,AC50,[14],27.5 µM (active)
CCOc1ccc(Cl)cc1/C=N/NC(N)=O,IC50,[10],> 80 µM (inactive)
same,IC50,[15],> 20 µM (inactive)
O=C(O)c1cccc(-n2cccc2/C=C2/NC(=O)N(c3cccc(Cl)c3)C2=O)c1,IC50,[3],9.53 µM (active)
Cc1ccc(-c2nc(CS(=O)(=O)CC(=O)NC3CCC(C)CC3)c(C)o2)cc1 (stereo not drawn),EC50,[1],> 350 µM (not active)
same,EC50,[2],> 350 µM (not active)
